Measured values published in article PMC10454409, “Hybrids of Sterically Hindered Phenols and Diaryl Ureas: Synthesis, Switch from Antioxidant Activity to ROS Generation and Induction of Apoptosis” (International Journal of Molecular Sciences, 2023).
Read-outs that look alike come from different tables or passages of the source.

Experiments:
Assay type in all cases: cell-based
[1] = tested on: Chang liver cells (human liver cells, normal cell line); assay: MTT cytotoxicity test, Chang liver normal cells; conditions: 48 h incubation
Description: (§1) For the experiments, we used tumor cell cultures M-HeLa clone 11 (epithelioid carcinoma of the cervix, subline HeLa., clone M-HeLa), HuTu 80 (human duodenal adenocarcinoma) and MCF7 (human breast adenocarcinoma (pleural fluid)) from the collection of the Institute of Cytology, Russian Academy of Sciences (St. Petersburg); human liver cells (Chang liver) from the collection of the Research Institute of Virology at the Russian Academy of Medical Sciences (Moscow); and SH-SY5Y (neuroblastoma)from the Laboratory of Tumor Cell Genetics at the Scientific Research Institute of Carcinogenesis N.N. Blokhin National Medical Research Center of Oncology.
(§2) The cytotoxic effect on cells was determined using the colorimetric method of cell proliferation—the MTT test. NADP-H-dependent cellular oxidoreductase enzymes can, under certain conditions, reflect the number of viable cells. These enzymes are able to reduce the tetrazolium dye (MTT)-3-(4,5-dimethylthiazol-2-yl)-2,5-diphenyl-tetrazolium bromide to insoluble blue-violet formazan, which crystallizes inside the cell. The amount of formazan formed is proportional to the number of cells with active metabolism.
(§3) Cells were seeded on a 96-well Nunc plate at a concentration of 5 × 10^3 cells per well in a volume of 100 μL of medium and cultured in a CO2 incubator at 37 °C until a monolayer was formed. […] After 48 h, the nutrient medium was removed from the plates and 100 µL of the nutrient medium without serum with MTT at a concentration of 0.5 mg/mL was added and incubated for 4 h at 37 °C. Formazan crystals were […] 100 µL of DMSO in each well. Optical density was recorded at 540 nm on an in vitro logic microplate reader (Russia). The experiments for all compounds were repeated in triplicate.
(§4) IC50 values were estimated using the Quest Graph IC50 Calculator (AAT Bioquest, Inc., Sunnyvale, CA, USA) (Version 2022) (accessed on 25 June 2022).

[2] = tested on: SH-SY5Y cells (neuroblastoma); assay: MTT cytotoxicity test, SH-SY5Y; conditions: for IC50: Homo sapiens, SH-SY5Y, MTT test, 24 h incubation per text, 48 h per method
Description: as §1, §2, §3, §4

[3] = tested on: MCF-7 cells (human breast adenocarcinoma); assay: MTT cytotoxicity test, MCF-7; conditions: for IC50: 24 h incubation per text, 48 h per method; for SI, selectivity index relative to Chang liver, MCF-7: MCF-7 vs Chang liver
Experimental: as §2
Formazan crystals were added to 100 µL of DMSO in each well. Optical density was recorded at 540 nm on an in vitro logic microplate reader (Russia). The experiments for all compounds were repeated in triplicate.

[4] = tested on: HuTu 80 cells (human duodenal adenocarcinoma); assay: MTT cytotoxicity test, HuTu 80; conditions: Homo sapiens
Description: as §1, §2, §3, §4

[5] = tested on: M-HeLa cells (human cervix epithelioid carcinoma); assay: MTT cytotoxicity test, M-HeLa; conditions: for IC50: Homo sapiens, M-HeLa, MTT test, 24 h incubation per text, 48 h per method
Description: as §1, §2, §3, §4

[6] = tested on: SH-SY5Y neuroblastoma cells; assay: Glycolysis stress test (Seahorse XF96e, ECAR); conditions: compound 100 µM
Experimental: We studied the ability of compounds to inhibit aerobic glycolysis using the Agilent Seahorse XF96e Analyzer (Seahorse Bioscience, North Billerica, MA, USA) assay of cellular metabolism on the level of proton production in samples examined on the SH-SY5Y neuroblastoma cell line using glycolysis stress tests. The extracellular acidification rate of the medium was measured in real time, which allowed us to assess the intensity of glycolysis in the cells by recording the main parameters of glycolytic function: basal glycolysis, glycolytic capacity and glycolytic reserve. Glycolytic capacity describes the maximum amount of glycolysis/glucose breakdown the cells can perform acutely, whereas glycolytic reserve is defined as the difference between the basal and maximal glycolytic capacity.
The ability of synthesized compounds to modulate […] glycolysis was studied using the Agilent Seahorse XF96e Analyzer (Seahorse Bioscience, Billerica, MA, USA) on the neuroblastoma SH-SY5Y cell line (40,000 cells per well) as described earlier.
Glycolysis was measured by subtracting the maximum rate of extracellular acidification of the medium before glucose injection from the maximum rate before oligomycin injection. Glycolytic capacity was measured by subtracting the maximum velocity value before glucose injection from the maximum velocity value after oligomycin injection. Glycolytic reserve was defined as the difference between glycolytic capacity and glycolysis.
Figure 6 Effect of synthesized compounds on the glycolytic profile of (a–c) SH-SY5Y tumor cells and (d) calculated parameters of glycolytic function. […] The concentration of compounds was 100 µM, glucose—10 mM, oligomycin—1 µM и 2-fluoro-2-deoxy-D-glucose—25 mM. Data are presented as mean±error of the mean (n = 3). Statistical significance was assessed using one-way ANOVA and Dunnett’s multiple comparison tests, where **** p < 0.0001, *** p < 0.001, ** p < 0.01 and * p < 0.05 vs. control.

[7] = HuTu80, read-out: IC50, HuTu 80
[8] = HuTu80, MTT test, 24 h incubation per text, 48 h per method, read-out: IC50, HuTu 80

Row | SMILES | IC50 [1] [µM] | IC50 [2] [µM] | IC50 ([3]; Homo sapiens, MCF7, MTT test) [µM] | IC50 [4, 7] [µM] | IC50 [5] [µM] | SI, selectivity index relative to Chang liver, SH-SY5Y ([2]; SH-SY5Y vs Chang liver) | SI, selectivity index relative to Chang liver, MCF-7 [3] | IC50 [4, 8] [µM] | IC50 ([3]; MTT test) [µM] | Glycolysis: rate of extracellular acidification after saturating glucose ([6]; glucose 10 mM) | Glycolytic capacity ([6]; oligomycin 1 µM) | SI, selectivity index relative to Chang liver, M-HeLa ([5]; M-HeLa vs Chang liver)
1 | CCOP(=O)(OCC)C(c1cc(C(C)(C)C)c(O)c(C(C)(C)C)c1)c1ccc(NC(=O)Nc2ccccc2)nc1NC(=O)Nc1ccccc1 (centres unmarked) [5b] | 31.4 ± 2.4 | 17.9 ± 1.9 | 36.3 ± 2.8 | 20 ± 1.7 | 62.5 ± 5.2 |  |  |  |  |  |  | 
2 | CCOP(=O)(OCC)C(c1cc(C(C)(C)C)c(O)c(C(C)(C)C)c1)c1ccc(NC(=O)Nc2ccc(OC)cc2)nc1NC(=O)Nc1ccc(OC)cc1 (centres unmarked) [10b] | 81.2 ± 6.4 | > 100 | 82.1 ± 6.5 | 45 ± 3.6 | > 100 |  |  |  |  |  |  | 
3 | Cc1ccc(NC(=O)Nc2ccc(C(c3cc(C(C)(C)C)c(O)c(C(C)(C)C)c3)P(=O)(Oc3ccccc3)Oc3ccccc3)c(NC(=O)Nc3ccc(C)cc3)n2)cc1 (centres unmarked) [9d] | > 100 | > 100 | 76.6 ± 6.2 | 50 ± 4 | 78.9 ± 6.2 |  |  |  |  |  |  | 
4 | CC(C)OP(=O)(OC(C)C)C(c1cc(C(C)(C)C)c(O)c(C(C)(C)C)c1)c1ccc(N)nc1N (centres unmarked) [3c] | 100 ± 2.7 | 30.4 ± 0.7 | 21.8 ± 1.7 |  | 38 ± 2.8 | ~3 | ~5 | > 100 |  |  |  | 
5 | CCOP(=O)(OCC)C(c1cc(C(C)(C)C)c(O)c(C(C)(C)C)c1)c1ccc(NC(=O)Nc2ccc(C)cc2)cc1NC(=O)Nc1ccc(C)cc1 (centres unmarked) [14b] | 21 ± 1.8 | 27 ± 1.1 | < 15 | 15.7 ± 1.3 | 14.1 ± 1.2 |  |  |  | 13.7 ± 1.2 | decrease in the rate of extracellular acidification | decrease in glycolytic capacity | 
6 | CNC(=O)c1cc(Oc2ccc(NC(=O)Nc3ccc(Cl)c(C(F)(F)F)c3)cc2)ccn1 [SF, sorafenib, reference compound] | 21.7 ± 1.7 |  |  |  | 25 ± 1.9 |  |  | 6.2 ± 0.5 |  |  |  | 
7 | COP(=O)(OC)C(c1cc(C(C)(C)C)c(O)c(C(C)(C)C)c1)c1ccc(NC(=O)Nc2cccc(C)c2)cc1NC(=O)Nc1cccc(C)c1 (centres unmarked) [13a] | 92 ± 7.2 | > 100 | 77.4 ± 6.3 | 75.1 ± 6.1 | 75 ± 6 |  |  |  |  |  |  | 
8 | CC(C)(C)c1cc(C(c2ccc(N)nc2N)P(=O)(Oc2ccccc2)Oc2ccccc2)cc(C(C)(C)C)c1O (centres unmarked) [3d] | 52.3 ± 3.5 | 18.8 ± 0.2 | 16.4 ± 1.7 | 63.2 ± 5.6 | 7.4 ± 0.7 |  | ~3 |  |  |  |  | ~7
9 | CCOP(=O)(OCC)C(c1cc(C(C)(C)C)c(O)c(C(C)(C)C)c1)c1ccc(NC(=O)Nc2cccc(C)c2)nc1NC(=O)Nc1cccc(C)c1 (centres unmarked) [8b] | 13 ± 1.2 | 41 ± 0.3 | 35.4 ± 2.8 | < 15 | 62 ± 2.2 |  |  | 8 ± 0.6 |  |  |  | 
10 | CCOP(=O)(OCC)C(c1cc(C(C)(C)C)c(O)c(C(C)(C)C)c1)c1ccc(NC(=O)Nc2ccc(Cl)cc2)cc1NC(=O)Nc1ccc(Cl)cc1 (centres unmarked) [16b] | > 100 | > 100 | > 100 | 61 ± 4.8 | 100 ± 8.6 |  |  |  |  |  |  | 
11 | CCOP(=O)(OCC)C(c1cc(C(C)(C)C)c(O)c(C(C)(C)C)c1)c1ccc(N)nc1N (centres unmarked) [3b] | > 100 | 77 ± 1.9 | 34.2 ± 3 | 86.6 ± 6.8 | 17.1 ± 1.3 |  |  |  |  |  |  | 
12 | COP(=O)(OC)C(c1cc(C(C)(C)C)c(O)c(C(C)(C)C)c1)c1ccc(N)nc1N (centres unmarked) [3a] | > 100 | > 100 | 31 ± 2.6 | > 100 | 16.1 ± 1.3 |  |  |  |  |  |  | 
13 | CCOP(=O)(OCC)C(c1cc(C(C)(C)C)c(O)c(C(C)(C)C)c1)c1ccc(NC(=S)Nc2ccccc2)nc1N (centres unmarked) [18b] |  | > 70 | > 70 | > 70 | > 70 |  |  |  |  |  |  | 
14 | COP(=O)(OC)C(c1cc(C(C)(C)C)c(O)c(C(C)(C)C)c1)c1ccc(NC(=O)Nc2ccc([N+](=O)[O-])cc2)cc1NC(=O)Nc1ccc([N+](=O)[O-])cc1 (centres unmarked) [17a] | 86 ± 6.6 | > 100 | 73.6 ± 5.8 | 41 ± 3.1 | 60 ± 4.7 |  |  |  |  |  |  | 
15 | CCOP(=O)(OCC)C(c1cc(C(C)(C)C)c(O)c(C(C)(C)C)c1)c1ccc(NC(=O)Nc2cccc(C)c2)cc1NC(=O)Nc1cccc(C)c1 (centres unmarked) [13b] | 68.2 ± 5.4 | 86.3 ± 4 | 57.7 ± 4.6 | 40.1 ± 3.1 | 96.3 ± 7.5 |  |  |  |  |  |  | 
16 | CCOP(=O)(OCC)C(c1cc(C(C)(C)C)c(O)c(C(C)(C)C)c1)c1ccc(NC(=O)Nc2ccc(OC)cc2)cc1NC(=O)Nc1ccc(OC)cc1 (centres unmarked) [15b] | 96 ± 7.6 | > 100 | 96.3 ± 7.6 | 58.7 ± 4.6 | > 100 |  |  |  |  |  |  | 
17 | COc1ccc(NC(=O)Nc2ccc(C(c3cc(C(C)(C)C)c(O)c(C(C)(C)C)c3)P(=O)(Oc3ccccc3)Oc3ccccc3)c(NC(=O)Nc3ccc(OC)cc3)n2)cc1 (centres unmarked) [10d] |  | > 70 | > 70 | > 70 | > 70 |  |  |  |  |  |  | 
18 | COc1ccc(NC(=O)Nc2ccc(C(c3cc(C(C)(C)C)c(O)c(C(C)(C)C)c3)P(=O)(OC)OC)c(NC(=O)Nc3ccc(OC)cc3)n2)cc1 (centres unmarked) [10a] |  | > 70 | > 70 | > 70 | > 70 |  |  |  |  |  |  | 
19 | CC(C)OP(=O)(OC(C)C)C(c1cc(C(C)(C)C)c(O)c(C(C)(C)C)c1)c1ccc(NC(=O)Nc2ccc(Cl)cc2)nc1NC(=O)Nc1ccc(Cl)cc1 (centres unmarked) [11c] |  | > 70 | > 70 |  | > 70 |  |  | > 70 |  |  |  | 
20 | COP(=O)(OC)C(c1cc(C(C)(C)C)c(O)c(C(C)(C)C)c1)c1ccc(NC(=O)Nc2ccc(C)cc2)cc1NC(=O)Nc1ccc(C)cc1 (centres unmarked) [14a] |  | > 70 | > 70 | > 70 | > 70 |  |  |  |  |  |  | 
